Measurements: ChEMBL document CHEMBL1121944, “Conformation-activity study of 4-phenylpiperidine analgesics” (1982)

Experiments:
[1] = Analgesic activity was determined; type: functional
[2] = Relative potency was determined to 3-dimethyl prodine after brain penetration; type: functional

In the case of CCC(=O)OC1(c2ccccc2)CCN(C)CC1, the ED50 [1] was 1 mg/kg and the Relative potency [2] was 1.

For CCC(=O)OC1(c2ccccc2)CCN(C)CC1C (stereo unspecified) [ALPHAPRODINE], the ED50 [1] was 1.45 mg/kg and the Relative potency [2] was 1.24.

CCC(=O)O[C@@]1(c2ccccc2)CCN(C)C[C@@H]1C [BETAPRODINE] showed an ED50 [1] of 5.21 mg/kg and a Relative potency [2] of 1.77.
